Test system: immunoglobulin light chain protein WIL-FL T46L
Test: Differential scanning fluorimetry (thermal shift) assay
Format: binding
Details: Table A; temperature shift [Tm]compound-[Tm]vehicle; recombinant WIL-FL T46L

SMILES	DSF
Cc1nc(C2C3(c4nc5c(C)cc(N6CC[C@](C)(c7ccccc7)C6)cn5n4)CC2(C(C)(C)O)CO3)n[nH]1 (mixture of isomers) [Compound 3, 2-[1-[8-methyl-6-[rac-(3R)-3-methyl-3-phenyl-pyrrolidin-1-yl]-[1,2,4]triazolo[1,5-a]pyridin-2-yl]-5-(5-methyl-1H-1,2,4-triazol-3-yl)-2-oxabicyclo[2.1.1]hexan-4-yl]propan-2-ol]	***** (>2.5° C.=*****)
Cc1nc(C2C3(C(=O)O)COC2(c2nc4c(C)cc(N5CC[C@](C)(c6ccccc6)C5)cn4n2)C3)n[nH]1 (stereo partly drawn) [Compound 1A, 5-(5-methyl-1H-1,2,4-triazol-3-yl)-1-(8-methyl-6-((R)-3-methyl-3-phenylpyrrolidin-1-yl)-[1,2,4]triazolo[1,5-a]pyridin-2-yl)-2-oxabicyclo[2.1.1]hexane-4-carboxylic acid]	***** (>2.5° C.=*****)
Cc1cc(N2CC[C@](C)(c3ccccc3)C2)cn2nc(C34CC(N)(CO3)C4CO)nc12 (stereo partly drawn) [Compound 4, (4-amino-1-(8-methyl-6-((R)-3-methyl-3-phenylpyrrolidin-1-yl)-[1,2,4]triazolo[1,5-a]pyridin-2-yl)-2-oxabicyclo[2.1.1]hexan-5-yl)methanol]	***** (>2.5° C.=*****)
Cc1cc(N2CC[C@](C)(c3ccccc3)C2)cn2nc(C34CC(N)(CO3)C4)nc12 [Compound 5, 1-[8-methyl-6-[(3R)-3-methyl-3-phenyl-pyrrolidin-1-yl]-[1,2,4]triazolo[1,5-a]pyridine-2-yl]-2-oxabicyclo[2.1.1]hexan-4-amine]	***** (>2.5° C.=*****)
Cc1cc(N2CC[C@](C)(c3ccccc3)C2)cn2nc(C34CC(CO3)C4c3nc(C(N)=O)n[nH]3)nc12 (stereo partly drawn) [Compound 6, 5-[1-[8-methyl-6-[(3R)-3-methyl-3-phenyl-pyrrolidin-1-yl]-[1,2,4]triazolo[1,5-a]pyridine-2-yl]-2-oxabicyclo[2.1.1]hexan-5-yl]-1H-1,2,4-triazole-3-carboxamide]	***** (>2.5° C.=*****)
Cc1cc(N2CC[C@](C)(c3ccccc3)C2)cn2nc(C34CC(CO3)C4CNc3cccc(C(=O)O)n3)nc12 (stereo partly drawn) [Compound 8, 6-[[1-[8-methyl-6-[(3R)-3-methyl-3-phenyl-pyrrolidin-1-yl]-[1,2,4]triazolo[1,5-a]pyridin-2-yl]-2-oxabicyclo[2.1.1]hexan-5-yl]methylamino]pyridine-2-carboxylic acid]	***** (>2.5° C.=*****)
Cc1nc(CC2C3COC2(c2nc4c(C)cc(N5CC[C@](C)(c6ccccc6)C5)cn4n2)C3)n[nH]1 (stereo partly drawn) [Compound 9, 8-methyl-6-[(3R)-3-methyl-3-phenyl-pyrrolidin-1-yl]-2-[5-[(5-methyl-1H-1,2,4-triazol-3-yl)methyl]-2-oxabicyclo[2.1.1]hexan-1-yl]-[1,2,4]triazolo[1,5-a]pyridine]	***** (>2.5° C.=*****)
CC(=O)Nc1n[nH]c(C2C3COC2(c2nc4c(C)cc(N5CC[C@](C)(c6ccccc6)C5)cn4n2)C3)n1 (stereo partly drawn) [Compound 10, N-[5-[1-[8-methyl-6-[(3R)-3-methyl-3-phenyl-pyrrolidin-1-yl]-[1,2,4]triazolo[1,5-a]pyridine-2-yl]-2-oxabicyclo[2.1.1]hexan-5-yl]-1H-1,2,4-triazol-3-yl]acetamide]	***** (>2.5° C.=*****)
Cc1cc(N2CC[C@](C)(c3ccccc3)C2)cn2nc(C34CC(CO3)C4c3cn(C)nn3)nc12 (stereo partly drawn) [Compound 11, 8-methyl-6-[(3R)-3-methyl-3-phenyl-pyrrolidin-1-yl]-2-[5-(1-methyltriazol-4-yl)-2-oxabicyclo[2.1.1]hexan-1-yl]-[1,2,4]triazolo[1,5-a]pyridine]	***** (>2.5° C.=*****)
Cc1cc(N2CC[C@](C)(c3ccccc3)C2)cn2nc(C3OC4(CO)CC3(C(N)=O)C4)nc12 (some centres unmarked) [Compound 12]	***** (>2.5° C.=*****)
Cc1cc(N2CC[C@](C)(c3ccccc3)C2)cn2nc(C34CC(CO3)C4c3noc(=O)[nH]3)nc12 (stereo partly drawn) [Compound 13, 3-[1-[8-methyl-6-[(3R)-3-methyl-3-phenyl-pyrrolidin-1-yl]-[1,2,4]triazolo[1,5-a]pyridin-2-yl]-2-oxabicyclo[2.1.1]hexan-5-yl]-4H-1,2,4-oxadiazol-5-one]	***** (>2.5° C.=*****)
CNC(=O)c1nc2c(C)cc(N3CCC(C)(c4ncco4)C3)cn2n1 (centres unmarked) [Compound 14, N,8-dimethyl-6-(3-methyl-3-(oxazol-2-yl)pyrrolidin-1-yl)-[1,2,4]triazolo[1,5-a]pyridine-2-carboxamide]	** (>0.5-1 °C =**)
CNC(=O)c1nc2c(C)cc(N3CCC(C)(c4nccs4)C3)cn2n1 (centres unmarked) [Compound 15, N,8-dimethyl-6-(3-methyl-3-(thiazol-2-yl)pyrrolidin-1-yl)-[1,2,4]triazolo[1,5-a]pyridine-2-carboxamide]	***** (>2.5° C.=*****)
CNC(=O)c1nc2c(C)cc(OC3CCC3(C)c3ccccc3)cn2n1 (centres unmarked) [Compound 16, N,8-dimethyl-6-(2-methyl-2-phenylcyclobutoxy)-[1,2,4]triazolo[1,5-a]pyridine-2-carboxamide]	* (0-0.5° C.=*)
Cc1cccc(C2CCC23CN(c2cc(C)c4nc(C(=O)N5CC[C@@]6(CCN(c7cccc(C(=O)O)n7)C6)C5)nn4c2)C3)c1 (stereo partly drawn) [Compound 17, 6-((5R)-7-(8-methyl-6-(5-(m-tolyl)-2-azaspiro[3.3]heptan-2-yl)-[1,2,4]triazolo[1,5-a]pyridine-2-carbonyl)-2,7-diazaspiro[4.4]nonan-2-yl)picolinic acid]	***** (>2.5° C.=*****)
Cc1cc(N2CC[C@](C)(c3ccccc3)C2)cn2nc(C(=O)NC3CC4(COC4)C3)nc12 [Compound 18, (R)-8-methyl-6-(3-methyl-3-phenylpyrrolidin-1-yl)-N-(2-oxaspiro[3.3]heptan-6-yl)-[1,2,4]triazolo[1,5-a]pyridine-2-carboxamide]	***** (>2.5° C.=*****)
Cc1cc(N2CC[C@](C)(c3ccccc3)C2)cn2nc(C(=O)NC3CCN(c4cccc(C(=O)O)n4)C3)nc12 (stereo partly drawn) [Compound 19, 6-(3-(8-methyl-6-((R)-3-methyl-3-phenylpyrrolidin-1-yl)-[1,2,4]triazolo[1,5-a]pyridine-2-carboxamido)pyrrolidin-1-yl)picolinic acid]	***** (>2.5° C.=*****)
Cc1cc(N2CC[C@](C)(c3ccccc3)C2)cn2nc(C(=O)NC3CCN(c4cccc(C(=O)O)n4)CC34COC4)nc12 (stereo partly drawn) [Compound 20, 6-(9-(8-methyl-6-((R)-3-methyl-3-phenylpyrrolidin-1-yl)-[1,2,4]triazolo[1,5-a]pyridine-2-carboxamido)-2-oxa-6-azaspiro[3.5]nonan-6-yl)picolinic acid]	***** (>2.5° C.=*****)
Cc1cc(N2CC[C@](C)(c3ncco3)C2)cn2nc(C(=O)N3CC[C@@]4(CCN(c5cccc(C(=O)O)n5)C4)C3)nc12 [Compound 21, 6-((R)-7-(8-methyl-6-((S)-3-methyl-3-(oxazol-2-yl)pyrrolidin-1-yl)-[1,2,4]triazolo[1,5-a]pyridine-2-carbonyl)-2,7-diazaspiro[4.4]nonan-2-yl)picolinic acid]	*** (>1-1.5° C.=***)
C[C@]1(c2ccccc2)CCN(c2cc(N)c3cc(C(=O)N4CC[C@@]5(CCN(c6cccc(C(=O)O)n6)C5)C4)nn3c2)C1 [Compound 22, 6-((R)-7-(4-amino-6-((R)-3-methyl-3-phenylpyrrolidin-1-yl)pyrazolo[1,5-a]pyridine-2-carbonyl)-2,7-diazaspiro[4.4]nonan-2-yl)picolinic acid]	**** (>1.5-2.5° C.=****)
Cc1cc(N2CCC(C)(C3CC4(CC4)C3)C2)cn2nc(C(=O)N3C[C@@H]4CN(c5cccc(C(=O)O)n5)C[C@@H]4C3)nc12 (stereo partly drawn) [Compound 23, 6-((3aR,6aS)-5-(8-methyl-6-(3-methyl-3-(spiro[2.3]hexan-5-yl)pyrrolidin-1-yl)-[1,2,4]triazolo[1,5-a]pyridine-2-carbonyl)hexahydropyrrolo[3,4-c]pyrrol-2(1H)-yl)picolinic acid]	**** (>1.5-2.5° C.=****)
Cc1cc(N2CC3(CC[C@H]3c3ccccc3)C2)cn2nc(C(=O)N3CC[C@@]4(CCN(c5cccc(C(=O)O)n5)C4)C3)nc12 [Compound 24A, Lithium 6-((R)-7-(8-methyl-6-((S)-5-phenyl-2-azaspiro[3.3]heptan-2-yl)-[1,2,4]triazolo[1,5-a]pyridine-2-carbonyl)-2,7-diazaspiro[4.4]nonan-2-yl)picolinate]	***** (>2.5° C.=*****)

Same assay, conditions: Table B; temperature shift [Tm]compound-[Tm]vehicle; recombinant WIL-FL T46L

SMILES	DSF
Cc1cc(N2CC[C@](C)(c3ccccc3)C2)cn2nc(C(=O)N3CCC4(CCN(c5ccc(C#N)c(C(=O)O)n5)C4)C3)nc12 (mixture of isomers) [Compound 609, 3-cyano-6-[2-[8-methyl-6-[rac-(3R)-3-methyl-3-phenyl-pyrrolidin-1-yl]-[1,2,4]triazolo[1,5-a]pyridine-2-carbonyl]-2,7-diazaspiro[4.4]nonan-7-yl]pyridine-2-carboxylic acid]	***** (>2.5° C.=*****)
Cc1cc(N2CC[C@](C)(c3ccccc3)C2)cn2nc(C(=O)NC3CC[C@]4(CCN(c5cccc(C(=O)O)n5)C4)C3)nc12 (mixture of isomers) [Compound 633, 6-[rac-(5S)-8-[[8-methyl-6-[rac-(3R)-3-methyl-3-phenyl-pyrrolidin-1-yl]-[1,2,4]triazolo[1,5-a]pyridine-2-carbonyl]amino]-2-azaspiro[4.4]nonan-2-yl]pyridine-2-carboxylic acid]	***** (>2.5° C.=*****)
Cc1cc(N2CC[C@](C)(c3ccccc3)C2)cn2nc(C(=O)NC3CC[C@@]4(CCN(c5cccc(C(=O)O)n5)C4)C3)nc12 (mixture of isomers) [Compound 634, 6-[rac-(5R)-8-[[8-methyl-6-[rac-(3R)-3-methyl-3-phenyl-pyrrolidin-1-yl]-[1,2,4]triazolo[1,5-a]pyridine-2-carbonyl]amino]-2-azaspiro[4.4]nonan-2-yl]pyridine-2-carboxylic acid]	***** (>2.5° C.=*****)
Cc1cc(N2CC[C@](C)(c3ccccc3)C2)cn2nc(C(=O)NC34COC(CN(c5cccc(C(=O)O)n5)C3)C4)nc12 (mixture of isomers) [Compound 690, 6-[1-[[8-methyl-6-[rac-(3R)-3-methyl-3-phenyl-pyrrolidin-1-yl]-[1,2,4]triazolo[1,5-a]pyridine-2-carbonyl]amino]-6-oxa-3-azabicyclo[3.2.1]octan-3-yl]pyridine-2-carboxylic acid]	***** (>2.5° C.=*****)
